Converted amounts (≈) assume the structure as drawn. The source made the active and inactive calls. No cut-off for these calls is given here. Where a SMILES comes first, the peptide text is derived from it.

Here are results for four molecules from ChEMBL document CHEMBL4725351, “Cyclic Derivative of Host-Defense Peptide IDR-1018 Improves Proteolytic Stability, Suppresses Inflammation, and Enhances In Vivo Activity” (J Med Chem, 2020).

Series [1] has as its target T1, Trypsin (Homo sapiens, UniProt P07477+P07478+P35030). Kind of series: Stability of the compound in pH 8.2 ammonium bicarbonate buffer assessed as trypsin (unknown origin)-mediated drug degradation at 20 ug/ml measured up to 120 mins by RP-HPLC analysis. Type of series: ADME, protein assay. The note with it: pH 8.2, 2 h, at 20 µg/mL.
Series [2] is described as follows: Aggregation property of the compound in water at 1 mg/ml by turbidimetric method. To be noted: buffer. In kind it is physicochemical.
Series [3] concerns Staphylococcus aureus. Put plainly: Antibacterial activity against methicillin-resistant Staphylococcus aureus SAP0017 measured after overnight incubation by microtitre plate based spectrophotometric method. Type of series: functional.
Series [4] deals with Klebsiella pneumoniae. Kind of series: Antibiofilm activity against Klebsiella pneumoniae ATTC 13883 incubated for 24 hrs under shaking condition by turbidometric method. In kind it is functional.
Series [5] addresses T1, Trypsin. Put plainly: Stability of the compound in pH 8.2 ammonium bicarbonate buffer assessed as trypsin (unknown origin)-mediated drug degradation at 20 ug/ml measured up to 120 mins by MALDI-TOF analysis. Type of series: ADME, protein assay. To be noted: pH 8.2, 2 h, at 20 µg/mL.
In series [6] the test system is Staphylococcus aureus. Put plainly: Antibiofilm activity against methicillin-resistant Staphylococcus aureus SAP0017 incubated for 24 hrs under shaking condition by turbidometric method. In kind it is functional.
Series [7] concerns Staphylococcus aureus. Put plainly: Antibiofilm activity against methicillin-resistant Staphylococcus aureus USA300 LAC incubated for 24 hrs under shaking condition by turbidometric method. Type of series: functional.
Series [8] concerns Klebsiella pneumoniae. Put plainly: Antibacterial activity against Klebsiella pneumoniae ATTC 13883 measured after overnight incubation by microtitre plate based spectrophotometric method. Type of series: functional.
The test system of series [9] is PBMC. Kind of series: Immunomodulatory activity in human PBMC assessed as increase in IL-1RA production at 25 ug/ml measured after overnight incubation by ELISA. Type of series: functional, tissue-based. To be noted: dose 25.0 µg/ml.
Series [10] has as its system Acinetobacter baumannii. Kind of series: Antibacterial activity against Acinetobacter baumannii 5015 measured after overnight incubation by microtitre plate based spectrophotometric method. In kind it is functional.
Series [11] deals with Acinetobacter baumannii. Kind of series: Antibacterial activity against Acinetobacter baumannii 17918 measured after overnight incubation by microtitre plate based spectrophotometric method. In kind it is functional.
A short description of series [12]: Aggregation property of the compound in sodium phosphate solution at 10 mM by turbidimetric method. Type of series: physicochemical. The note with it: 10000 µM.
In series [13] the test system is Escherichia coli. Kind of series: Antibiofilm activity against Escherichia coli ATTC 489 incubated for 24 hrs under shaking condition by turbidometric method. Type of series: functional.
For series [14], the system named is Pseudomonas aeruginosa. Kind of series: Antibacterial activity against Pseudomonas aeruginosa PAO1 measured after overnight incubation by microtitre plate based spectrophotometric method. In kind it is functional.
Series [15] in a line: Aggregation of the compound in human PBMC assessed as amorphous morphology at 50 ug/ml measured after 4 hrs by microscopic analysis. Type of series: ADME, tissue-based. The note with it: dose 50 µg/ml.
Series [16] relates to Pseudomonas aeruginosa. Kind of series: Antibiofilm activity against Pseudomonas aeruginosa PA14 incubated for 24 hrs under shaking condition by turbidometric method. In kind it is functional.
In series [17] the test system is Escherichia coli. Kind of series: Antibacterial activity against Escherichia coli ATTC 489 measured after overnight incubation by microtitre plate based spectrophotometric method. Type of series: functional.
Series [18] in a line: Aggregation property of the compound in RPMI medium with 1% FBS at 1 mg/ml by turbidimetric method. Type of series: physicochemical.
A short description of series [19]: Aggregation property of the compound in sodium citrate solution at 10 mM by turbidimetric method. The note with it: 10000 µM. In kind it is physicochemical.
Series [20] deals with Pseudomonas aeruginosa. Put plainly: Antibacterial activity against Pseudomonas aeruginosa PA14 measured after overnight incubation by microtitre plate based spectrophotometric method. Type of series: functional.
In series [21] the test system is Acinetobacter baumannii. Kind of series: Antibiofilm activity against Acinetobacter baumannii 5015 incubated for 24 hrs under shaking condition by turbidometric method. In kind it is functional.
Series [22] deals with PBMC. Kind of series: Immunomodulatory activity in human PBMC assessed as increase in MCP1 production at 25 ug/ml measured after overnight incubation by ELISA. Type of series: functional, tissue-based. To be noted: dose 25.0 µg/ml.
The test system of series [23] is PBMC. Put plainly: Immunomodulatory activity in human PBMC assessed as change in TNFalpha production at 25 ug/ml measured after overnight incubation by ELISA. Type of series: functional, tissue-based. To be noted: dose 25.0 µg/ml.
Series [24] in a line: Aggregation property of the compound in 5% dextrose at 1 mg/ml by turbidimetric method. In kind it is physicochemical.
Series [25] can be described thus: Aggregation property of the compound in sodium nitrate solution at 10 mM by turbidimetric method. Type of series: physicochemical. The note with it: 10000 µM.
Series [26] has as its system Acinetobacter baumannii. Kind of series: Antibiofilm activity against Acinetobacter baumannii 17918 incubated for 24 hrs under shaking condition by turbidometric method. Type of series: functional.
Series [27] deals with Staphylococcus aureus. Put plainly: Antibacterial activity against methicillin-resistant Staphylococcus aureus USA300 LAC measured after overnight incubation by microtitre plate based spectrophotometric method. Type of series: functional.
The nature of series [28]: Cytotoxicity against human PBMC assessed as reduction in cell viability at 100 ug/ml measured after 24 hrs by LDH assay. Type of series: tissue-based. The note with it: dose 100 µg/ml.
Series [29] in a line: Aggregation property of the compound in saline at 1 mg/ml by turbidimetric method. Type of series: physicochemical. The note with it: buffer.
The test system of series [30] is Pseudomonas aeruginosa. Kind of series: Antibiofilm activity against Pseudomonas aeruginosa PAO1 incubated for 24 hrs under shaking condition by turbidometric method. Type of series: functional.
The test system of series [31] is Acinetobacter baumannii. Put plainly: Antibiofilm activity against 24 hrs preformed Acinetobacter baumannii 17918 biofilm assessed as reduction in biofilm viability at 100 ug/ml by TTC assay. Type of series: functional, organism-based. To be noted: dose 100.0 µg/ml.
The subject of series [32] is Escherichia coli. Kind of series: Antibiofilm activity against 24 hrs preformed Escherichia coli ATTC 489 biofilm assessed as reduction in biofilm viability at 100 ug/ml by TTC assay. In kind it is functional, organism-based. To be noted: dose 100.0 µg/ml.
Series [33] concerns Pseudomonas aeruginosa. Put plainly: Antibiofilm activity against 24 hrs preformed Pseudomonas aeruginosa PAO1 biofilm assessed as reduction in biofilm viability at 100 ug/ml by TTC assay. In kind it is functional, organism-based. To be noted: dose 100.0 µg/ml.
Series [34] deals with Acinetobacter baumannii. Kind of series: Antibiofilm activity against 24 hrs preformed Acinetobacter baumannii 5015 biofilm assessed as reduction in biofilm viability at 100 ug/ml by TTC assay. Type of series: functional, organism-based. To be noted: dose 100.0 µg/ml.
The test system of series [35] is Pseudomonas aeruginosa. Put plainly: Antibiofilm activity against 24 hrs preformed Pseudomonas aeruginosa PA14 biofilm assessed as reduction in biofilm viability at 100 ug/ml by TTC assay. In kind it is functional, organism-based. To be noted: dose 100.0 µg/ml.
Series [36] concerns Klebsiella pneumoniae. Put plainly: Antibiofilm activity against 24 hrs preformed Klebsiella pneumoniae ATTC 13883 biofilm assessed as reduction in biofilm viability at 100 ug/ml by TTC assay. In kind it is functional, organism-based. The note with it: dose 100.0 µg/ml.

On to `CC[C@H](C)[C@@H]1NC(=O)[C@H](CCCNC(=N)N)NC(=O)[C@H](C(C)C)NC(=O)[C@H](C)NC(=O)[C@H](C(C)C)NC(=O)[C@H]([C@@H](C)CC)NC(=O)[C@H](CC(C)C)NC(=O)[C@H](CCCNC(=N)N)NC(=O)[C@H](C(C)C)NC(=O)[C@H](CCCNC(=N)N)NC(=O)[C@H](CCCNC(=N)N)NC(=O)[C@H](Cc2c[nH]c3ccccc23)NC1=O` (cyclo(AVRIWRRVRLIV)), for which the Stabilty result on Trypsin [1] and at Trypsin [5] was “Stable” throughout. Moreover, the Activity entry in series [2] is listed as “Not Active”; in [12], “Not Active”; in [15], “Not Active”; in [18], “Active”; in series [19], “Not Active”; in [24], “Not Active”. The Activity entry in series [25] is reported as “Not Active”; in series [28] it was “Toxic”; in series [29], “Not Active”. For the same molecule, the MIC in the series on Staphylococcus aureus [3] was 65.8 µM (≈ 99.9 µg/mL); against Klebsiella pneumoniae [8], 65.8 µM (≈ 99.9 µg/mL); with Acinetobacter baumannii [10], 65.8 µM (≈ 99.9 µg/mL); in the series on Acinetobacter baumannii [11], 65.8 µM (≈ 99.9 µg/mL); against Pseudomonas aeruginosa [14], more than 65.8 µM; in the series on Escherichia coli [17], 65.8 µM (≈ 99.9 µg/mL). The MIC with Pseudomonas aeruginosa [20] is more than 65.8 µM; against Staphylococcus aureus [27], 65.8 µM (≈ 99.9 µg/mL). In addition, the MBEC in the series with Klebsiella pneumoniae [4] is more than 65.8 µM; in the series on Staphylococcus aureus [6] it was 65.8 µM; in the series on Staphylococcus aureus [7], 65.8 µM; in the series with Escherichia coli [13], more than 65.8 µM; in the series on Pseudomonas aeruginosa [16] it was more than 65.8 µM; in the series on Acinetobacter baumannii [21], more than 65.8 µM. Besides, the MBEC in the series on Acinetobacter baumannii [26] and in the series with Pseudomonas aeruginosa [30] was more than 65.8 µM each time. Further, the result in the series on PBMC [9], with PBMC [22] and in the series on PBMC [23] was Active.

Consider `CCCCCCCCCCCCCCCC[N+](C)(C)Cc1ccccc1.[Cl-]` [CETALKONIUM CHLORIDE], for which the MIC against Staphylococcus aureus [3] was 3.7 µM; against Klebsiella pneumoniae [8] it was 7.8 µM; with Acinetobacter baumannii [10] it was 7.8 µM; against Acinetobacter baumannii [11] it was 7.8 µM; with Pseudomonas aeruginosa [14] it was more than 126 µM; against Escherichia coli [17], 7.8 µM. Also, the minimum inhibitory concentration (MIC) against Pseudomonas aeruginosa [20] was more than 126 µM; against Staphylococcus aureus [27], 3.7 µM. The MBEC in the series with Klebsiella pneumoniae [4] was 63.1 µM; in the series on Staphylococcus aureus [6], 15.1 µM; with Staphylococcus aureus [7] it was 20.1 µM; with Escherichia coli [13] it was 40.3 µM; in the series on Pseudomonas aeruginosa [16], more than 126 µM; in the series with Acinetobacter baumannii [21], 40.3 µM. Further, the MBEC was 40.3 µM in the series with Acinetobacter baumannii [26] and more than 126 µM with Pseudomonas aeruginosa [30].

As for `CN[C@H](CC(C)C)C(=O)N[C@H]1C(=O)N[C@@H](CC(N)=O)C(=O)N[C@H]2C(=O)N[C@H]3C(=O)N[C@H](C(=O)N[C@H](C(=O)O)c4cc(O)cc(O)c4-c4cc3ccc4O)[C@H](O)c3ccc(c(Cl)c3)Oc3cc2cc(c3O[C@@H]2O[C@H](CO)[C@@H](O)[C@H](O)[C@H]2O[C@H]2C[C@](C)(N)[C@H](O)[C@H](C)O2)Oc2ccc(cc2Cl)[C@H]1O` [VANCOMYCIN], the MIC was 0.4 µM (≈ 0.58 µg/mL) in the series on Staphylococcus aureus [3]; more than 68 µM with Klebsiella pneumoniae [8]; more than 68 µM against Acinetobacter baumannii [10]; more than 68 µM in the series on Acinetobacter baumannii [11]; more than 68 µM in the series with Pseudomonas aeruginosa [14]; more than 68 µM in the series with Escherichia coli [17]. Also, the minimum inhibitory concentration (MIC) with Pseudomonas aeruginosa [20] is more than 68 µM; with Staphylococcus aureus [27], 0.4 µM (≈ 0.58 µg/mL). For the same molecule, the MBEC in the series with Klebsiella pneumoniae [4], in the series with Staphylococcus aureus [6], in the series on Staphylococcus aureus [7], in the series with Escherichia coli [13], in the series on Pseudomonas aeruginosa [16] and with Acinetobacter baumannii [21] was more than 68 µM in each case. Also, the MBEC with Acinetobacter baumannii [26] and in the series with Pseudomonas aeruginosa [30] was more than 68 µM in each case.

Consider COLISTIN, for which the result in the series on Acinetobacter baumannii [31], in the series with Escherichia coli [32], with Pseudomonas aeruginosa [33], with Acinetobacter baumannii [34], in the series on Pseudomonas aeruginosa [35] and in the series with Klebsiella pneumoniae [36] was inactive. The MIC against Staphylococcus aureus [3] is more than 86 µM; with Klebsiella pneumoniae [8] it was 1.2 µM; with Acinetobacter baumannii [10], 1.2 µM; with Acinetobacter baumannii [11] it was 1.2 µM; in the series on Pseudomonas aeruginosa [14] it was 2.5 µM; in the series on Escherichia coli [17] it was 1.2 µM. The values for the MIC with Pseudomonas aeruginosa [20] and in the series on Staphylococcus aureus [27] were 2.5 µM and more than 86 µM, respectively. The MBEC in the series on Klebsiella pneumoniae [4], with Staphylococcus aureus [6], in the series with Staphylococcus aureus [7], with Escherichia coli [13], in the series on Pseudomonas aeruginosa [16] and in the series on Acinetobacter baumannii [21] was more than 86 µM each time. The MBEC in the series with Acinetobacter baumannii [26] and in the series with Pseudomonas aeruginosa [30] was more than 86 µM in each case.
